Reference: ChEMBL document CHEMBL4834440, “2,2,2-trifluoro-1-(1,4,5,6-tetrahydropyridin-3-yl)ethanone derivative as efflux pump inhibitor in Mycobacterium tuberculosis” (Bioorg Med Chem Lett, 2021)
In brackets after ≈: the same amount, converted by molar mass.

Columns and labels:
[1] = system: Mycobacterium tuberculosis; assay: Inhibition of Multidrug resistance efflux pump in Mycobacterium tuberculosis FURG-2 assessed as relative final fluorescence at 3.12 ug/ml measured by ethidium bromide accumulation assay; settings: dose 3.12 µg/ml
[2] = system: Mycobacterium tuberculosis; assay: Antimycobacterial activity against multidrug-resistant Mycobacterium tuberculosis FURG-2 assessed as inhibition of bacterial growth measured by Resazurin microtitre assay; assay type: functional
[3] = system: Mycobacterium tuberculosis H37Rv; assay: Inhibition of Multidrug resistance efflux pump in Mycobacterium tuberculosis H37Rv assessed as reduction in rifampicin MIC at 1.56 ug/ml measured by ethidium bromide accumulation assay; settings: dose 1.56 µg/ml
[4] = system: Mycobacterium tuberculosis H37Rv; assay: Inhibition of Multidrug resistance efflux pump in Mycobacterium tuberculosis H37Rv assessed as relative final fluorescence at 6.26 ug/ml measured by ethidium bromide accumulation assay; settings: dose 6.26 µg/ml

## O=C(C1=CN(CCc2ccccc2)C(NCCc2ccccc2)CC1)C(F)(F)F (centres undefined)
[1]
  RFU: 1.07
[2]
  MIC: 12.5 µg/mL (≈ 31.1 µM)
[3]
  MIC: 16 µg/mL
[4]
  RFU: -0.2
